Experimental data reported in US7094752B2 (Chiron Corporation, priority 1997, dated 2006).
Where two headings read alike, the source gives them in different places. Marks after values point to notes of the source that are not given here. Square brackets hold non-standard residues; d marks the D form. Peptide text beside a SMILES is read from it. 1Nal = N[C@@H](Cc1cccc2ccccc12)C(=O)O; 2Nal = N[C@@H](Cc1ccc2ccccc2c1)C(=O)O

Key:
[1] = target: T1, soluble uPAR (Homo sapiens, UniProt Q03405); format: binding; parameters: sUPAR, soluble truncated form of the urokinase receptor; made in house; host or cells: baculovirus-infected Sf9 insect cells; settings: for % Inhibition 2.5 uM: 2500.0; for % Inhibition 5 uM: 5000.0
T1 sequence (Q03405 23-305 limits assumed): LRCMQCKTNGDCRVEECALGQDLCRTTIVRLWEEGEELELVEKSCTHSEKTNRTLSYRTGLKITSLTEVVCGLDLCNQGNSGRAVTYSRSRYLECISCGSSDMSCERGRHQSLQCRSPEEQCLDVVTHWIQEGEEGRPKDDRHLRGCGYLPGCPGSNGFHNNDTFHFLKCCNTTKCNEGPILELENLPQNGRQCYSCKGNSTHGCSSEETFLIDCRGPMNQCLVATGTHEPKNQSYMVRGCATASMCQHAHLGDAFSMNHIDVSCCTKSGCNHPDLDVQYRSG
Protocol: Streptavidin, 100 μl (0.1 mg/ml) in 50 mM Na2CO3, pH 9.6, was added to MaxiSorp wells (Nunc), incubated overnight at 4 C, and then washed with PBS/BSA. Biotinylated sUPAR (25 nM in PBS/BSA) was added to the wells and incubated for 2 hours at room temperature prior to washing. Competitive peptide inhibitors were added to the wells immediately prior to addition of the bacteriophage. The wells were incubated for one hour at room temperature, then washed and bound bacteriophage eluted with 6M urea in 0.1N HCl, pH 2.5. After 15 minutes, the urea eluate was brought to neutral pH by addition of 2M Tris base and the bacteriophage titers of input stocks and elutions measured by plaque formation assay. Results were expressed as the percent of input bacteriophage which bind to the wells. Alternatively, the amount of bacteriophage was determined in an ELISA where phage were preincubated with HRP-conjugated anti-M13 antibody for 30 minutes at room temperature before dispensing into wells prepared as above and incubated for one hour at room temperature. The final anti-M13 conjugate dilution was 1:4000. After washing, TMB substrate (100 μl/well) was added and color development was stopped with 0.8N H2SO4 (100 μl/well). The absorbance at 450 nm was then measured in a 96 well plate reader.
In a uPAR binding assay, the following analogs were tested in a competition with phage displaying either peptide 25 or peptide 9. The analogs comprise both natural and unnatural amino acids.
The analogs were tested in an assay utilizing soluble uPAR, similar to the method described in Example 2. The analogs were tested for their ability to compete with phage displaying either peptide 9 or peptide 25. Analogs 3–61 were tested in competition with peptide 25. Analogs 62–96 were tested in competition with peptide 9. Approximately 10^8 plaque forming units of the phage were used in the assay.
The analogs were tested at a concentration at 40 μM in the uPAR competition assay with phage displaying peptide 25. The results below show which analogs were active.
Analogs 31–61 were tested for their ability to compete with phage displaying peptide 25. The active analogs were tested further at two concentrations, 5 μM and 2.5 μM. These concentrations were calculated based on the synthesis reactions. However, the sequences * were further tested and determined to contain high amounts of amino acids and the quantity tested could have been higher than 5 μM or 2.5 μM.

[2] = target: T1, soluble uPAR; settings: for % Inhibition 2.5 uM: 2500.0; for % Inhibition 5 uM: 5000.0; for receptor binding activity, alanine scan of peptide 9: compared to peptide 9
Protocol: The analogs were tested for their ability to compete with phage displaying either peptide 9 or peptide 25. […] Approximately 10^8 plaque forming units of the phage were used in the assay.

## CSCC[C@H](NC(=O)[C@H](Cc1ccc(O)cc1)NC(=O)CNC(=O)[C@H](CC(C)C)NC(=O)[C@H](CO)NC(=O)[C@H](CC(C)C)NC(=O)[C@H](Cc1c[nH]cn1)NC(=O)[C@H](Cc1c[nH]cn1)NC(=O)[C@H](Cc1cccc2ccccc12)NC(=O)[C@@H](NC(=O)[C@H](CO)NC(=O)[C@H](CCC(=O)O)NC(=O)[C@H](C)N)[C@@H](C)O)C(=O)N[C@@H](Cc1ccc(O)cc1)C(=O)N[C@H](C(=O)N[C@@H](CC(C)C)C(=O)N[C@@H](CC(N)=O)C(N)=O)[C@@H](C)O [Analog 35, AESTXHHLSLGYMYTLN] (H-AEST[1Nal]HHLSLGYMYTLN-NH2)
[1]
  % Inhibition 2.5 uM: 70%
  % Inhibition 5 uM: 94%

## CSCC[C@H](NC(=O)[C@H](Cc1ccc(O)cc1)NC(=O)CNC(=O)[C@H](CC(C)C)NC(=O)[C@H](CO)NC(=O)[C@H](CC(C)C)NC(=O)[C@H](Cc1c[nH]cn1)NC(=O)[C@H](Cc1c[nH]cn1)NC(=O)[C@H](Cc1ccc2ccccc2c1)NC(=O)[C@@H](NC(=O)[C@H](CO)NC(=O)[C@H](CCC(=O)O)NC(=O)[C@H](C)N)[C@@H](C)O)C(=O)N[C@@H](Cc1ccc(O)cc1)C(=O)N[C@H](C(=O)N[C@@H](CC(C)C)C(=O)N[C@@H](CC(N)=O)C(N)=O)[C@@H](C)O [Analog 36] (H-AEST[2Nal]HHLSLGYMYTLN-NH2)
[1]
  % Inhibition 2.5 uM: 61%
  % Inhibition 5 uM: 78%

## CC(C)C[C@H](NC(=O)[C@H](CCCCN)NC(=O)[C@H](Cc1ccccc1)NC(=O)[C@H](Cc1ccccc1)NC(=O)[C@H](CCC(=O)O)NC(=O)[C@H](C)N)C(=O)NCC(=O)N1CCC[C@H]1C(=O)N[C@@H](CC(N)=O)C(=O)N[C@H](CO)C(=O)N[C@@H](Cc1ccc(O)cc1)C(=O)N[C@H](C(=O)N[C@@H](Cc1ccc(O)cc1)C(=O)N[C@@H](CC(C)C)C(=O)N[C@@H](Cc1c[nH]cn1)C(=O)N[C@@H](CO)C(=O)N[C@@H](C)C(N)=O)C(C)C [Analog 80] (H-AEFFKLGPN[dS]YVYLHSA-NH2)
[2]
  % Inhibition 2.5 uM: 89%
  % Inhibition 5 uM: 95%

## CC(C)C[C@H](NC(=O)[C@H](CCCCN)NC(=O)[C@H](Cc1ccccc1)NC(=O)[C@H](Cc1ccccc1)NC(=O)[C@H](CCC(=O)O)NC(=O)[C@H](C)N)C(=O)NCC(=O)N1CCC[C@H]1C(=O)N[C@@H](CC(N)=O)C(=O)N[C@H](C)C(=O)N[C@@H](Cc1ccc(O)cc1)C(=O)N[C@H](C(=O)N[C@@H](Cc1ccc(O)cc1)C(=O)N[C@@H](CC(C)C)C(=O)N[C@@H](Cc1c[nH]cn1)C(=O)N[C@@H](CO)C(=O)N[C@@H](C)C(N)=O)C(C)C [Analog 81] (H-AEFFKLGPN[dA]YVYLHSA-NH2)
[2]
  % Inhibition 2.5 uM: 79%
  % Inhibition 5 uM: 80%

## CC(C)C[C@H](NC(=O)[C@H](CCCCN)NC(=O)[C@H](Cc1ccccc1)NC(=O)[C@H](Cc1ccccc1)NC(=O)[C@H](CCC(=O)O)NC(=O)[C@@H](C)N)C(=O)NCC(=O)N1CCC[C@H]1C(=O)N[C@@H](CC(N)=O)C(=O)NCC(=O)N[C@@H](Cc1ccc(O)cc1)C(=O)N[C@H](C(=O)N[C@@H](Cc1ccc(O)cc1)C(=O)N[C@@H](CC(C)C)C(=O)N[C@@H](Cc1c[nH]cn1)C(=O)N[C@@H](CO)C(=O)N[C@@H](C)C(N)=O)C(C)C [Analog 82] (H-[dA]EFFKLGPNGYVYLHSA-NH2)
[2]
  % Inhibition 2.5 uM: 24* %
  % Inhibition 5 uM: 41%

## CC(C)C[C@H](NC(=O)[C@H](CCCCN)NC(=O)[C@H](Cc1ccccc1)NC(=O)[C@H](Cc1ccccc1)NC(=O)[C@@H](CCC(=O)O)NC(=O)[C@H](C)N)C(=O)NCC(=O)N1CCC[C@H]1C(=O)N[C@@H](CC(N)=O)C(=O)NCC(=O)N[C@@H](Cc1ccc(O)cc1)C(=O)N[C@H](C(=O)N[C@@H](Cc1ccc(O)cc1)C(=O)N[C@@H](CC(C)C)C(=O)N[C@@H](Cc1c[nH]cn1)C(=O)N[C@@H](CO)C(=O)N[C@@H](C)C(N)=O)C(C)C [Analog 83] (H-A[dE]FFKLGPNGYVYLHSA-NH2)
[2]
  % Inhibition 2.5 uM: 44%
  % Inhibition 5 uM: 59%

## CC(C)C[C@H](NC(=O)[C@H](CCCCN)NC(=O)[C@H](Cc1ccccc1)NC(=O)[C@H](Cc1ccccc1)NC(=O)[C@H](CCC(=O)O)NC(=O)[C@H](C)N)C(=O)NCC(=O)N1CCC[C@@H]1C(=O)N[C@@H](CC(N)=O)C(=O)NCC(=O)N[C@@H](Cc1ccc(O)cc1)C(=O)N[C@H](C(=O)N[C@@H](Cc1ccc(O)cc1)C(=O)N[C@@H](CC(C)C)C(=O)N[C@@H](Cc1c[nH]cn1)C(=O)N[C@@H](CO)C(=O)N[C@@H](C)C(N)=O)C(C)C [Analog 88] (H-AEFFKLG[dP]NGYVYLHSA-NH2)
[2]
  % Inhibition 2.5 uM: 80* %
  % Inhibition 5 uM: 76%

## CC(C)C[C@H](NC(=O)[C@H](CCCCN)NC(=O)[C@H](Cc1ccccc1)NC(=O)[C@H](Cc1ccccc1)NC(=O)[C@H](CCC(=O)O)NC(=O)[C@H](C)N)C(=O)NCC(=O)N1CCC[C@H]1C(=O)N[C@H](CC(N)=O)C(=O)NCC(=O)N[C@@H](Cc1ccc(O)cc1)C(=O)N[C@H](C(=O)N[C@@H](Cc1ccc(O)cc1)C(=O)N[C@@H](CC(C)C)C(=O)N[C@@H](Cc1c[nH]cn1)C(=O)N[C@@H](CO)C(=O)N[C@@H](C)C(N)=O)C(C)C [Analog 89] (H-AEFFKLGP[dN]GYVYLHSA-NH2)
[2]
  % Inhibition 2.5 uM: 15%
  % Inhibition 5 uM: 13%

## CC(C)C[C@H](NC(=O)[C@H](CCCCN)NC(=O)[C@H](Cc1ccccc1)NC(=O)[C@H](Cc1ccccc1)NC(=O)[C@H](CCC(=O)O)NC(=O)[C@H](C)N)C(=O)NCC(=O)N1CCC[C@H]1C(=O)N[C@@H](CC(N)=O)C(=O)NCC(=O)N[C@@H](Cc1ccc(O)cc1)C(=O)N[C@H](C(=O)N[C@H](Cc1ccc(O)cc1)C(=O)N[C@@H](CC(C)C)C(=O)N[C@@H](Cc1c[nH]cn1)C(=O)N[C@@H](CO)C(=O)N[C@@H](C)C(N)=O)C(C)C [Analog 92] (H-AEFFKLGPNGYV[dY]LHSA-NH2)
[2]
  % Inhibition 2.5 uM: 8.5%
  % Inhibition 5 uM: 3.3%

## CC(C)C[C@H](NC(=O)[C@H](CCCCN)NC(=O)[C@H](Cc1ccccc1)NC(=O)[C@H](Cc1ccccc1)NC(=O)[C@H](CCC(=O)O)NC(=O)[C@H](C)N)C(=O)NCC(=O)N1CCC[C@H]1C(=O)N[C@@H](CC(N)=O)C(=O)NCC(=O)N[C@@H](Cc1ccc(O)cc1)C(=O)N[C@H](C(=O)N[C@@H](Cc1ccc(O)cc1)C(=O)N[C@@H](CC(C)C)C(=O)N[C@H](Cc1c[nH]cn1)C(=O)N[C@@H](CO)C(=O)N[C@@H](C)C(N)=O)C(C)C [Analog 94] (H-AEFFKLGPNGYVYL[dH]SA-NH2)
[2]
  % Inhibition 2.5 uM: 36%
  % Inhibition 5 uM: 41%

## CC(C)C[C@H](NC(=O)[C@H](CCCCN)NC(=O)[C@H](Cc1ccccc1)NC(=O)[C@H](Cc1ccccc1)NC(=O)[C@H](CCC(=O)O)NC(=O)[C@H](C)N)C(=O)NCC(=O)N1CCC[C@H]1C(=O)N[C@@H](CC(N)=O)C(=O)NCC(=O)N[C@@H](Cc1ccc(O)cc1)C(=O)N[C@H](C(=O)N[C@@H](Cc1ccc(O)cc1)C(=O)N[C@@H](CC(C)C)C(=O)N[C@@H](Cc1c[nH]cn1)C(=O)N[C@H](CO)C(=O)N[C@@H](C)C(N)=O)C(C)C [Analog 95] (H-AEFFKLGPNGYVYLH[dS]A-NH2)
[2]
  % Inhibition 2.5 uM: 47%
  % Inhibition 5 uM: 59%

## CC(C)C[C@H](NC(=O)[C@H](CCCCN)NC(=O)[C@H](Cc1ccccc1)NC(=O)[C@H](Cc1ccccc1)NC(=O)[C@H](CCC(=O)O)NC(=O)[C@H](C)N)C(=O)NCC(=O)N1CCC[C@H]1C(=O)N[C@@H](CC(N)=O)C(=O)NCC(=O)N[C@@H](Cc1ccc(O)cc1)C(=O)N[C@H](C(=O)N[C@@H](Cc1ccc(O)cc1)C(=O)N[C@@H](CC(C)C)C(=O)N[C@@H](Cc1c[nH]cn1)C(=O)N[C@@H](CO)C(=O)N[C@H](C)C(N)=O)C(C)C [Analog 96] (H-AEFFKLGPNGYVYLHS[dA]-NH2)
[2]
  % Inhibition 2.5 uM: 38* %
  % Inhibition 5 uM: 40%

## AAFFKLGPNGYVYLHSA [Analog 65]
[2]
  receptor binding activity, alanine scan of peptide 9: decreased but did not destroy

## AEFAKLGPNGYVYLHSA [Analog 67]
[2]
  receptor binding activity, alanine scan of peptide 9: decreased but did not destroy

## AEFFKAGPNGYVYLHSA [Analog 69]
[2]
  receptor binding activity, alanine scan of peptide 9: destroyed receptor binding activity

## AEFFKLGPNGAVYLHSA [Analog 74]
[2]
  receptor binding activity, alanine scan of peptide 9: destroyed receptor binding activity

## AEFFKLGPNGYAYLHSA [Analog 75]
[2]
  receptor binding activity, alanine scan of peptide 9: destroyed receptor binding activity

## AEFFKLGPNGYVALHSA [Analog 76]
[2]
  receptor binding activity, alanine scan of peptide 9: destroyed receptor binding activity

## AEFFKLGPNGYVYAHSA [Analog 77]
[2]
  receptor binding activity, alanine scan of peptide 9: decreased but did not destroy
